The source of these data is ChEMBL document CHEMBL1158520, “Aryl- and heteroaryl-substituted aminobenzo[a]quinolizines as dipeptidyl peptidase IV inhibitors” (Bioorg Med Chem Lett, 2010).

Series [1] can be described thus: Half life in Wistar rat at 1 mg/kg, iv. It is filed as ADME, organism-based. Also on record: dose 1 mg/kg, route intravenous. To be noted: in vivo.
Series [2] can be described thus: Ratio of drug level in brain to plasma of Wistar rat. It counts as ADME.
Series [3] can be described thus: Oral bioavailability in Wistar rat at 3 mg/kg. It is filed as ADME, organism-based. To be noted: in vivo.
The nature of series [4]: Volume of distribution at steady state in Wistar rat at 1 mg/kg, iv. It is filed as ADME, organism-based. The arrangement: dose 1 mg/kg, route intravenous. To be noted: in vivo, read-out: Vdss.
Series [5] can be described thus: Clearance in Wistar rat at 1 mg/kg, iv. It is filed as ADME, organism-based. Also on record: dose 1 mg/kg, route intravenous. Particulars: in vivo.
Series [6] relates to Rattus norvegicus. As to the kind of experiment: Reduction of blood glucose level in po dosed Zucker fatty (fa/fa) rat administered 2 hrs before glucose challenge measured after 40 mins glucose challenge by oral glucose tolerance test. It counts as functional, organism-based.
The target in the next series is Dipeptidyl peptidase 4 (Homo sapiens, UniProt P27487). Put plainly: Inhibition of DPP4.
Sequence of Dipeptidyl peptidase 4 (P27487 whole entry): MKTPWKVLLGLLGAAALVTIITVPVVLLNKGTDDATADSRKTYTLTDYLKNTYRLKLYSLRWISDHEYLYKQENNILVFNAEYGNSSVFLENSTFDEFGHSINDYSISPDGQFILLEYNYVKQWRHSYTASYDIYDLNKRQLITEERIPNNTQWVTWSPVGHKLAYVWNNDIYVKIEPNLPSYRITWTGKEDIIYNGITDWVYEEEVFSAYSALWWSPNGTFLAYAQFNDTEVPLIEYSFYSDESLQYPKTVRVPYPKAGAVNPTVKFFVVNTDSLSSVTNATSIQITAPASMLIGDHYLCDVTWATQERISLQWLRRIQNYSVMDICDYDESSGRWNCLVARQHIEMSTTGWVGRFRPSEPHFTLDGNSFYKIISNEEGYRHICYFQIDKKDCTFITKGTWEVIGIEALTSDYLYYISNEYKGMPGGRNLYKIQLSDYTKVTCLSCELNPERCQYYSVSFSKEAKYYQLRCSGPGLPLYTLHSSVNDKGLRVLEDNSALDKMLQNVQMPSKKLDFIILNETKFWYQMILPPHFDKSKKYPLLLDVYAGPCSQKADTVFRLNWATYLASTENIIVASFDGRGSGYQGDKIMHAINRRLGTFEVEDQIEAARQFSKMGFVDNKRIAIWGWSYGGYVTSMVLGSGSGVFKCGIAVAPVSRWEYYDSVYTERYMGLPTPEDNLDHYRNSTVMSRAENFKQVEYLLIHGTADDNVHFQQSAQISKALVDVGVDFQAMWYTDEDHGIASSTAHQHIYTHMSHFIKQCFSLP
The next series has as its system Phospholipidosis. Put plainly: Minimal effective concentration for in vitro drug-induced phospholipidosis in fibroblasts. It is filed as ADME, cell-based. Particulars: fibroblast.
Series [7] can be described thus: Distribution coefficient, log D at pH 7.4. It counts as physicochemical. To be noted: octanol/water.
Series [8] deals with Rattus norvegicus. Put plainly: Reduction of blood glucose level in Zucker fatty (fa/fa) rat at 0.3 mg/kg, po administered 2 hrs before glucose challenge measured after 40 mins glucose challenge by oral glucose tolerance test. It is filed as functional. The arrangement: scale not given: the % may be the effect or the level left.
Series [9] in a line: Mutagenic activity in Salmonella Typhimurium. It is filed as toxicity. To be noted: salmonella enterica subsp. enterica serovar typhimurium.

By half-life is commonly meant how long it takes for the measured level to halve. The Kp is tissue or fluid exposure divided by exposure in the circulation. For orientation: bioavailability means the share of a dose that reaches the circulation, judged against a reference dose that is usually intravenous. The term clearance denotes the volume of plasma or blood freed of the substance per unit of time. One may read the IC50 as the concentration needed to halve the response being measured. On to `COc1cc2c(cc1OC)[C@@H]1C[C@H](N)[C@@H](c3cc(C)ccn3)CN1CC2`, for which the half-life in [1] is 1.4 h. Moreover, the Kp in series [2] worked out at 0.7. Also, the bioavailability in [3] is 50%. Also, the Vd in series [4] turned out to be 12 L/kg. In addition, the clearance in series [5] is 118 mL/min/kg. For the same compound, in the series on Rattus norvegicus [6], the Activity result was “Dose-dependent effect”. At Dipeptidyl peptidase 4, this compound showed a 50% inhibitory concentration (IC50) of 11 nM.
As to `COc1cc2c(cc1OC)[C@H]1C[C@@H](N)[C@H](c3cc(C)ccn3)CN1CC2`, 53000 nM corresponded to half-maximal inhibition at Dipeptidyl peptidase 4 (IC50).
As a reminder, the logD is the decadic logarithm of the distribution of all forms, ionised or not, between an organic phase and buffer at a given pH. In the case of `COc1cc2c(cc1OC)[C@@H]1CC(N)[C@@H](c3ccccc3)CN1CC2` (mixture of isomers), in the series with Phospholipidosis, the Phospholipidosis_MEC is 5 µM. Besides, the pH-dependent lipophilicity (logD) in series [7] worked out at 0.8.
In turn, `COc1cc2c(cc1OC)[C@@H]1CC(N)[C@@H](c3cccc(C)c3)CN1CC2` (mixture of isomers) had a half-life in series [1] of 6.9 h. Also, in series [2], the Kp is 5.8. Moreover, the bioavailability in [3] was 56%. The compound further gave an Activity in the series on Rattus norvegicus [8] of 41%. This compound showed a Phospholipidosis_MEC in the series with Phospholipidosis of 2.5 µM. For the same compound, the Vd in series [4] is 42 L/kg. The compound also returned a clearance in series [5] of 87 mL/min/kg. Moreover, the pH-dependent lipophilicity (logD) in series [7] was determined as 1.3.
`COc1cc2c(cc1OC)[C@@H]1CC(N)[C@@H](c3cccc(Cl)c3)CN1CC2` (mixture of isomers) had a log distribution coefficient (logD) in series [7] of 1.7.
Compound `COc1cc2c(cc1OC)[C@@H]1CC(N)[C@@H](c3cccc(C4CC4)c3)CN1CC2` (mixture of isomers) registered a logD in series [7] of 1.8. Moreover, the midpoint of inhibition on Dipeptidyl peptidase 4, the IC50, lay at 38 nM.
Regarding `COc1cc2c(cc1OC)[C@@H]1CC(N)[C@@H](c3cccc(C(C)C)c3)CN1CC2` (mixture of isomers), the logD in [7] turned out to be 2. Moreover, the IC50 against Dipeptidyl peptidase 4 came to 5500 nM.
Regarding `COc1cc2c(cc1OC)[C@@H]1CC(N)[C@@H](c3cccc(CF)c3)CN1CC2` (mixture of isomers), the logD in series [7] amounted to 1.6.
In series [7], `CCc1cccc([C@H]2CN3CCc4cc(OC)c(OC)cc4[C@@H]3CC2N)c1` (mixture of isomers) yielded a pH-dependent lipophilicity (logD) of 1.7. Moreover, the 50% inhibitory concentration (IC50) at Dipeptidyl peptidase 4 stood at 61 nM.
`COc1cc2c(cc1OC)[C@@H]1CC(N)[C@@H](c3cc(CF)ccn3)CN1CC2` (mixture of isomers): the Activity result in [9] is “Toxic”. The same compound displayed a pH-dependent lipophilicity (logD) in series [7] of 0.1. The same compound returned a half-maximal inhibitory concentration (IC50) on Dipeptidyl peptidase 4 of 1.2 nM.
Take `COc1cc2c(cc1OC)[C@@H]1CC(N)[C@@H](c3cc(C)ccn3)CN1CC2` (mixture of isomers): the Phospholipidosis_MEC in the series with Phospholipidosis came out at 15 µM. This compound also yielded a log distribution coefficient (logD) in [7] of 0.3. Moreover, at Dipeptidyl peptidase 4, the IC50 was found to be 19 nM.
Turning to `COc1cc2c(cc1OC)[C@@H]1CC(N)[C@@H](c3cc(C)ccc3C)CN1CC2` (mixture of isomers), the pH-dependent lipophilicity (logD) in [7] turned out to be 1.6. Besides, the IC50 against Dipeptidyl peptidase 4 turned out to be 1.7 nM.
